Measured values from publication PMC11077089, “Molecular basis of A. thaliana KEOPS complex in biosynthesizing tRNA t^6A” (Nucleic Acids Research, 2024).

Tests used:
Type in all cases: biochemical
KB (KAE1–BUD32) = target: T1, KB (KAE1–BUD32) (Arabidopsis thaliana, UniProt Q94K14); assay: NADH-coupled ATPase assay; conditions: 2 mM ATP, 5 μM protein, 5 mM MgCl2, pH 7.5, 25°C
T1 construct: gene T1N24.12; pET21a-AtKAE1-BUD32-6His, E. coli; monomer (1:1) by SEC; with tRNA N6-adenosine threonylcarbamoyltransferase KAE1
T1 sequence (Q94K14 1-226): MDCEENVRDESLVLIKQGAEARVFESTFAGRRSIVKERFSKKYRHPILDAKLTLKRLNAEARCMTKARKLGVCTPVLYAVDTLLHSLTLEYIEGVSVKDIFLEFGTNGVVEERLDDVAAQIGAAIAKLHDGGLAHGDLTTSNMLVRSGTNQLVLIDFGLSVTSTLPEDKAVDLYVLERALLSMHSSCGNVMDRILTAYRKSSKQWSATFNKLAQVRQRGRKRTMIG
T1 sequence (O49653 1-353 partner): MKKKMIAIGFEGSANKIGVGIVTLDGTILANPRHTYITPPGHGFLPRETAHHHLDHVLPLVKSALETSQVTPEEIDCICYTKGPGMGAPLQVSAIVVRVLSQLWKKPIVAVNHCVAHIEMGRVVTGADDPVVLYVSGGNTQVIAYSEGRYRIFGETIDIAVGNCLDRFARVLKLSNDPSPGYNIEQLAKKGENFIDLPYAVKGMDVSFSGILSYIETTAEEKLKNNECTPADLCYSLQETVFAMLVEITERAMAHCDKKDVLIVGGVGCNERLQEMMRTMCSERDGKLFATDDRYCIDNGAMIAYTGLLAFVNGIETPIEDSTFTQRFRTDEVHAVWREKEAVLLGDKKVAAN

KBP (KAE1–BUD32–PCC1) = target: T2, KBP (KAE1–BUD32–PCC1) (Arabidopsis thaliana, UniProt Q94K14); assay: NADH-coupled ATPase assay; conditions: 2 mM ATP, 5 μM protein, 5 mM MgCl2, pH 7.5, 25°C
T2 construct: gene T1N24.12; subcomplex without CGI121, recombinant from E. coli; dimer by SEC; with tRNA N6-adenosine threonylcarbamoyltransferase KAE1; EKC/KEOPS complex subunit PCC1
T2 sequence (Q94K14 1-226): T1 sequence (Q94K14 1-226)
T2 sequence (O49653 1-353 partner): T1 sequence (O49653 1-353 partner)
T2 sequence (Q8GWD7 1-96 partner): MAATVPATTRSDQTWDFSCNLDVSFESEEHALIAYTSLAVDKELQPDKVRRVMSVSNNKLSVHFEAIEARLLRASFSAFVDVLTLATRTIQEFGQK

[1] = target: T3, AtYRDC (A. thaliana YRDC) (Arabidopsis thaliana, UniProt F4K0E6); assay: LC-MS of TC-AMP formation; conditions: 2 μM YRDC, 4 mM L-threonine, 2 mM ATP, 20 mM NaHCO3, 5 mM MgCl2, pH 7.5, 25°C
T3 construct: gene MUP24.1; pET21a-AtYRDC-6His, E. coli, synthetic DNA
T3 sequence (F4K0E6 1-288): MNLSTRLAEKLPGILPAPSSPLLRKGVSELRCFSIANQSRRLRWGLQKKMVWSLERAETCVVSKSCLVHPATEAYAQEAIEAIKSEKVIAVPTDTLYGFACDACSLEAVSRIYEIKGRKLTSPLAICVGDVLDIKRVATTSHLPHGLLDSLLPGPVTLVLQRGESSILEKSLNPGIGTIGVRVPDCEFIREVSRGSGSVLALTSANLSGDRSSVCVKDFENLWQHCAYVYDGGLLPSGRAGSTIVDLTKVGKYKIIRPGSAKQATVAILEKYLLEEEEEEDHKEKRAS

Structure (SMILES) | NADH-coupled ATPase assay (KB (KAE1–BUD32)) | NADH-coupled ATPase assay (KBP (KAE1–BUD32–PCC1)) | LC-MS of TC-AMP formation [1]
Nc1ncnc2c1ncn2[C@@H]1O[C@H](COP(=O)(O)OP(=O)(O)OP(=O)(O)O)[C@@H](O)[C@H]1O [ATP] | efficient conversion of ATP to ADP in the presence of KAE1–BUD32, PCC1–KAE1–BUD32 or KEOPS | efficient conversion of ATP to ADP in the presence of KAE1–BUD32, PCC1–KAE1–BUD32 or KEOPS | –
C[C@@H](O)[C@H](N)C(=O)O [L-threonine] | – | – | YRDC is active in catalyzing the formation of threonylcarbamoyl-AMP (TC-AMP)
